Data taken from patent publication US7595398B2, “N-(5-membered aromatic ring)-amido anti-viral compounds” (SmithKline Beecham Corporation, priority 2005, dated 2009).

Tested on: HCV replicon I389luc-ubi-neo/NS3-3′/ET in ET (Huh-lucubineo-ET) cells; screening for HCV RNA dependent RNA polymerase
Test: Replicon Assay (luciferase, ET cell line Huh-lucubineo-ET)
Assay type: cell-based
Conditions: Hepatitis C virus; inhibition of replication relative to no compound control; test concentration of 10 μM according to the fitted equation; luciferase 48-72 hours
Protocol: A cell line, ET (Huh-lucubineo-ET) was used for screening of compounds of the present invention for HCV RNA dependent RNA polymerase. The ET cell line was stably transfected with RNA transcripts harboring a I389luc-ubi-neo/NS3-3′/ET; replicon with firefly luciferase-ubiquitin-neomycin phosphotransferase fusion protein and EMCV-IRES driven NS3-5B polyprotein containing the cell culture adaptive mutations (E1202G; T12801; K1846T) (Krieger at al, 2001 and unpublished). The ET cells were grown in DMEM, supplemented with 10% fetal calf serum, 2 mM Glutamine, Penicillin (100 IU/mL)/Streptomycin (100 μg/mL), 1× nonessential amino acids, and 250 μg/mL G418 (“Geneticin”). They were all available through Life Technologies (Bethesda, Md.). The cells were plated at 0.5-1.0×10^4 cells/well in the 96 well plates and incubated for 24 hrs before adding nucleoside analogs. […] Luciferase activity were measured 48-72 hours later by adding a lysis buffer and the substrate (Catalog number Glo-lysis buffer E2661 and Bright-Glo luciferase system E2620 Promega, Madison, Wis.). Cells should not be too confluent during the assay. Percent inhibition of replication was plotted relative to no compound control. Under the same condition, cytotoxicity of the compounds was determined using cell proliferation reagent, WST-1(Roche, Germany). The compounds showing antiviral activities, but no significant cytotoxicities were chosen to determine IC50 and TC50. For these determinations, 10 concentrations of each compound were used. Concentrations for test compounds typically span a range of 500 fold. IC50 and TC50 values were calculated by fitting % inhibition at each concentration (I) to the following equation: % inhibition=100%/[1+10^(log IC50−log (I))*b] where b is Hill's coefficient.

`CNc1ccc(-c2csc(NC(=O)C3CCCN3C(=O)OCc3ccccc3)n2)cc1` (centres unmarked) [Compound 5049, 2-[4-(4-Methylamino-phenyl)-thiazol-2-ylcarbamoyl]-pyrrolidine-1-carboxylic acid benzyl ester] was tested. Which inhibition at 10 µM did it give?
The inhibition at 10 µM was 95.6%.

With `O=C(CCCCC1SCC2NC(=O)NC21)Nc1ccc(-c2csc(NC(=O)[C@@H]3CCCN3C(=O)OCc3ccccc3)n2)cc1` (some centres unmarked) [Compound 5093, 2-(4-{4-[5-(2-Oxo-hexahydro-thieno[3,4-d]imidazol-4-yl)-pentanoylamino]-phenyl}-thiazol-2-ylcarbamoyl)-pyrrolidine-1-carboxylic acid benzyl ester] as the molecule, how does the inhibition at 10 µM read?
Its inhibition at 10 µM is 100%.

`CCNC(=O)c1ccc(-c2csc(NC(=O)[C@@H]3CCCN3C(=O)OCc3ccccc3)n2)cc1` [Compound 5092, 2-[4-(4-Ethylcarbamoyl-phenyl)-thiazol-2-ylcarbamoyl]-pyrrolidine-1-carboxylic acid benzyl ester] was tested. Which inhibition at 10 µM did it give?
The inhibition at 10 µM was 100%.

With `O=C(Nc1nc(-c2ccc(Br)cc2)cs1)[C@@H]1CCCN1C(=O)OCc1ccccc1` [Compound 5097, 2-[4-(4-Bromo-phenyl)-thiazol-2-ylcarbamoyl]-pyrrolidine-1-carboxylic acid benzyl ester] as the molecule, how does the inhibition at 10 µM read?
The inhibition at 10 µM was 43.3%.

With `O=C(Nc1nc(-c2ccc(NS(=O)(=O)c3ccccc3)cc2)cs1)C1CCCN1C(=O)OCc1ccccc1` (centres unmarked) [Compound 5027, 2-[4-(4-Benzenesulfonylamino-phenyl)-thiazol-2-ylcarbamoyl]-pyrrolidine-1-carboxylic acid benzyl ester] as the molecule, how does the inhibition at 10 µM read?
Its inhibition at 10 µM is 99.7%.

With `COc1ccc(-c2csc(NC(=O)[C@@H]3CCCN3C(=O)OCc3ccccc3)n2)cc1Cl` [Compound 5090, 2-[4-(3-Chloro-4-methoxy-phenyl)-thiazol-2-ylcarbamoyl]-pyrrolidine-1-carboxylic acid benzyl ester] as the molecule, how does the inhibition at 10 µM read?
The inhibition at 10 µM was 99.8%.

With `COCCCNC(=O)c1ccc(-c2csc(NC(=O)[C@@H]3CCCN3C(=O)OCc3ccccc3)n2)cc1` [Compound 5370, 2-{4-[4-(3-Methoxy-propylcarbamoyl)-phenyl]-thiazol-2-ylcarbamoyl}-pyrrolidine-1-carboxylic acid benzyl ester] as the molecule, how does the inhibition at 10 µM read?
The inhibition at 10 µM was 100%.

How did the inhibition at 10 µM turn out when `COC(=O)c1sc(NC(=O)[C@@H]2CCCN2C(=O)OCc2ccccc2)nc1-c1ccc(C(=O)NC2CC2)cc1` [Compound 5362, 2-[(1-Benzyloxycarbonyl-pyrrolidine-2-carbonyl)-amino]-4-(4-cyclopropylcarbamoyl-phenyl)-thiazole-5-carboxylic acid methyl ester] was run?
Its inhibition at 10 µM is 98.7%.

Which inhibition at 10 µM does the source give for `CCc1ccc(-c2csc(NC(=O)[C@@H]3CCCN3C(=O)OCc3ccccc3)n2)cc1` [Compound 5094, 2-[4-(4-Ethyl-phenyl)-thiazol-2-ylcarbamoyl]-pyrrolidine-1-carboxylic acid benzyl ester] here?
Its inhibition at 10 µM is 3.49%.

With `O=C(NC1CC1)c1ccc(-c2csc(NC(=O)[C@@H]3CCCN3C(=O)OCc3ccccc3)n2)nc1` [Compound 5355, 2-[4-(5-Cyclopropylcarbamoyl-pyridin-2-yl)-thiazol-2-ylcarbamoyl]-pyrrolidine-1-carboxylic acid benzyl ester] as the molecule, how does the inhibition at 10 µM read?
Its inhibition at 10 µM is 99.9%.

Which inhibition at 10 µM does the source give for `O=C(O)c1ccc(-c2cnc(NC(=O)[C@@H]3CCCN3C(=O)OCc3ccccc3)s2)cc1` [Compound 5353, 2-[5-(4-Carboxy-phenyl)-thiazol-2-ylcarbamoyl]-pyrrolidine-1-carboxylic acid benzyl ester] here?
Its inhibition at 10 µM is 50.2%.

How did the inhibition at 10 µM turn out when `O=C(Nc1nc(-c2cccc(NCC3CCCC3)c2)cs1)[C@@H]1CCCN1C(=O)OCc1ccccc1` [Compound 5319, 2-{4-[3-(Cyclopentylmethyl-amino)-phenyl]-thiazol-2-ylcarbamoyl}-pyrrolidine-1-carboxylic acid benzyl ester] was run?
The inhibition at 10 µM was 67.4%.

For `O=C(Nc1ccc(-c2csc(NC(=O)C3CCCN3C(=O)OCc3ccccc3)n2)cc1)c1ccccc1` (centres unmarked) [Compound 5037, 2-[4-(4-Benzoylamino-phenyl)-thiazol-2-ylcarbamoyl]-pyrrolidine-1-carboxylic acid benzyl ester], which inhibition at 10 µM is on record?
Its inhibition at 10 µM is 100%.

For `O=C(NC1CCCCC1)c1ccc(-c2csc(NC(=O)[C@@H]3CCCN3C(=O)OCc3ccccc3)n2)cc1` [Compound 5303, 2-[4-(4-Cyclohexylcarbamoyl-phenyl)-thiazol-2-ylcarbamoyl]-pyrrolidine-1-carboxylic acid benzyl ester], which inhibition at 10 µM is on record?
Its inhibition at 10 µM is 100%.

For `O=C(Nc1nc(C2(c3ccccc3)CCCC2)cs1)[C@@H]1CCCN1C(=O)OCc1ccccc1` [Compound 5028, 2-[4-(1-Phenyl-cyclopentyl)-thiazol-2-ylcarbamoyl]-pyrrolidine-1-carboxylic acid benzyl ester], which inhibition at 10 µM is on record?
The inhibition at 10 µM was 98.9%.

How did the inhibition at 10 µM turn out when `CC(C)Cc1ccc(-c2csc(NC(=O)[C@@H]3CCCN3C(=O)OCc3ccccc3)n2)cc1` [Compound 5102, 2-[4-(4-Isobutyl-phenyl)-thiazol-2-ylcarbamoyl]-pyrrolidine-1-carboxylic acid benzyl ester] was run?
Its inhibition at 10 µM is 9.8%.

How did the inhibition at 10 µM turn out when `CN(C(=O)c1ccc(-c2csc(NC(=O)[C@@H]3CCCN3C(=O)OCc3ccccc3)n2)cc1)C1CCCCC1` [Compound 5332, 2-{4-[4-(Cyclohexyl-methyl-carbamoyl)-phenyl]-thiazol-2-ylcarbamoyl}-pyrrolidine-1-carboxylic acid benzyl ester] was run?
Its inhibition at 10 µM is 99.7%.

With `O=C(NCc1ccc(-c2csc(NC(=O)[C@@H]3CCCN3C(=O)OCc3ccccc3)n2)cc1)C1CC1` [Compound 5369, 2-(4-{4-[(Cyclopropanecarbonyl-amino)-methyl]-phenyl}-thiazol-2-ylcarbamoyl)-pyrrolidine-1-carboxylic acid benzyl ester] as the molecule, how does the inhibition at 10 µM read?
Its inhibition at 10 µM is 98.3%.

How did the inhibition at 10 µM turn out when `O=C(Nc1ncc(Cc2ccc(Cl)cc2)s1)[C@@H]1CCCN1C(=O)OCc1ccccc1` [Compound 5063, 2-[5-(4-Chloro-benzyl)-thiazol-2-ylcarbamoyl]-pyrrolidine-1-carboxylic acid benzyl ester] was run?
The inhibition at 10 µM was 51.7%.

With `O=C(Nc1ccc(-c2csc(NC(=O)C3CCCN3C(=O)OCc3ccccc3)n2)cc1)C1CCCC1` (centres unmarked) [Compound 5006, 2-{4-[4-(Cyclopentanecarbonyl-amino)-phenyl]-thiazol-2-ylcarbamoyl}-pyrrolidine-1-carboxylic acid benzyl ester] as the molecule, how does the inhibition at 10 µM read?
Its inhibition at 10 µM is 99.9%.

How did the inhibition at 10 µM turn out when `O=C(Nc1ncc(Cc2cccc(Cl)c2)s1)[C@@H]1CCCN1C(=O)OCc1ccccc1` [Compound 5029, 2-[5-(3-Chloro-benzyl)-thiazol-2-ylcarbamoyl]-pyrrolidine-1-carboxylic acid benzyl ester] was run?
The inhibition at 10 µM was 0.52%.

For `O=C(NC1CNC1)c1ccc(-c2csc(NC(=O)[C@@H]3CCCN3C(=O)OCc3ccccc3)n2)cc1` [Compound 5337, 2-{4-[4-(Azetidin-3-ylcarbamoyl)-phenyl]-thiazol-2-ylcarbamoyl}-pyrrolidine-1-carboxylic acid benzyl ester], which inhibition at 10 µM is on record?
The inhibition at 10 µM was 100%.

With `O=C(Nc1ccc(-c2csc(NC(=O)[C@@H]3CCCN3C(=O)OCc3ccccc3)n2)cc1)c1ccc(Cl)cc1` [Compound 5036, 2-{4-[4-(4-Chloro-benzoylamino)-phenyl]-thiazol-2-ylcarbamoyl}-pyrrolidine-1-carboxylic acid benzyl ester] as the molecule, how does the inhibition at 10 µM read?
Its inhibition at 10 µM is 100%.

How did the inhibition at 10 µM turn out when `O=C(Nc1nc(-c2cc3ccccc3oc2=O)cs1)[C@@H]1CCCN1C(=O)OCc1ccccc1` [Compound 5007, 2-[4-(2-Oxo-2H-chromen-3-yl)-thiazol-2-ylcarbamoyl]-pyrrolidine-1-carboxylic acid benzyl ester] was run?
Its inhibition at 10 µM is 100%.

`CC(C)NC(=O)c1ccc(-c2csc(NC(=O)C3CCCN3C(=O)OCc3ccccc3)n2)cc1` (centres unmarked) [Compound 5117, 2-[4-(4-Isopropylcarbamoyl-phenyl)-thiazol-2-ylcarbamoyl]-pyrrolidine-1-carboxylic acid benzyl ester] was tested. Which inhibition at 10 µM did it give?
Its inhibition at 10 µM is 99.8%.

With `Nc1cccc(-c2cnc(NC(=O)[C@@H]3CCCN3C(=O)OCc3ccccc3)s2)c1` [Compound 5114, 2-[5-(3-Amino-phenyl)-thiazol-2-ylcarbamoyl]-pyrrolidine-1-carboxylic acid benzyl ester] as the molecule, how does the inhibition at 10 µM read?
Its inhibition at 10 µM is 25%.

`CC(C)(C)OC(=O)N1CCCC(NC(=O)c2ccc(-c3csc(NC(=O)[C@@H]4CCCN4C(=O)OCc4ccccc4)n3)cc2)C1` (stereo in doubt) [Compound 5365, 3-(4-{2-[(1-Benzyloxycarbonyl-pyrrolidine-2-carbonyl)-amino]-thiazol-4-yl}-benzoylamino)-piperidine-1-carboxylic acid tert-butyl ester] was tested. Which inhibition at 10 µM did it give?
The inhibition at 10 µM was 99.9%.

Which inhibition at 10 µM does the source give for `O=C(Nc1nc(-c2ccc(C(=O)N3CCOCC3)cc2)cs1)C1CCCN1C(=O)OCc1ccccc1` (centres unmarked) [Compound 5364, 2-{4-[4-(Morpholine-4-carbonyl)-phenyl]-thiazol-2-ylcarbamoyl}-pyrrolidine-1-carboxylic acid benzyl ester] here?
Its inhibition at 10 µM is 4.49%.

How did the inhibition at 10 µM turn out when `O=C(NC1CC1)c1ccc(-c2csc(NC(=O)[C@H]3CCCN3C(=O)OCc3ccccc3)n2)cc1` [Compound 5349, 2-[4-(4-Cyclopropylcarbamoyl-phenyl)-thiazol-2-ylcarbamoyl]-pyrrolidine-1-carboxylic acid benzyl ester] was run?
The inhibition at 10 µM was 28.6%.
